# From article PMC11435393, “Novel Pyrrole Derivatives as Multi-Target Agents for the Treatment of Alzheimer’s Disease: Microwave-Assisted Synthesis, In Silico Studies and Biological Evaluation” (Pharmaceuticals, 2024)
# Values joined by “and” are separate entries in the source; they are usually repeats but may differ in a detail not shown here. Equal entries are not always repeated. Structures can show the parent of a compound that is named as a salt.
# How the values were obtained:
# [1] = cited from earlier work
# [2] = PAMPA-BBB permeability test
# Procedure: Thus, the passive diffusion of vh0 was evaluated using an in vitro permeability test.
# The in vitro Parallel Artificial Permeability Assay—blood brain barrier (PAMPA-BBB) test was carried out by PAMPA Permeability Analyzer (pIONInc, Billerica, MA, USA). The permeabilities (Pe) of the dual-acting pyrrole-based hydrazide—vh0, were evaluated considering the manufacturer BBB Protocol. Initially, the stock solutions of vh0 and reference molecules were dissolved in DMSO and diluted with Prisma HT buffer pH 7.4 (Pion Inc. Billerica, MA, USA) to reach a concentration of 50 μM. The well plates were filled with 200 µL BSB (Brain Skin Buffer). The incubation was established for 4 h at 25 °C with no stirring. The permeability of the structures was evaluated by accessing their concentrations in both the donor and acceptor phases spectrophotometrically. The permeability coefficients were calculated by PAMPA Explorer Command Software and presented as –logPe.
# [3] = ABTS radical scavenging assay; conditions: 1 mg/mL, 734 nm
# Procedure: The radical scavenging properties of the newly synthesized structures were also calculated with the help of a ABTS test according to a modified method of Arnao et al.. The tests were conducted in methanol at room temperature. The absorbance of the solutions was measured at λ = 734 nm. The stable ABTS radical was produced by mixing 7 mmol/L solution of ABTS and 2.4 mmol/L solution of potassium persulphate, which were allowed to react for 14 h in the dark at room temperature. The working solutions were made of 2 mL of the stock solution diluted in 50 mL of methanol with an absorbance of 0.30 ± 0.04 units at […]. In total, 1 mL of the ABTS working solution was allowed to react with the pyrrole derivatives with concentrations of 1 mg/mL for 10 min. The inhibition percentage was calculated by applying the same formula as the DPPH assay.
# [4] = DPPH radical scavenging assay; conditions: 1 mg/mL, 517 nm
# Procedure: The test observes the hydrogen donating capacity of the molecules which is shown with a decrease in the absorbance at 517 nm. The DPPH radical scavenging activity of the title hydrazide vh0 and hydrazide–hydrazones vh1-4 was determined in 1 mg/mL concentration with Trolox applied as a standard.
# The radical scavenging activities of the title compounds were examined with a DPPH (2,2- diphenyl-1-picrylhydrazyl) test. A solution of DPPH has an intense violet color and a UV absorption at 515 nm could be observed. The presence of an antioxidant leads to visible decolorization of the sample and the absorption could be measured. Here, the scavenging rate of the DPPH radical was carried out by the widely employed classical protocol of Brand-Williams et al.. A 1 mg/mL of the title compounds were reacted with methonol solution of the DPPH (1 mmol/L). Thereafter, the obtained mixture was left in a dark palce for 15 min. The absorbance was assessed at 517 nm. Three measurements were conducted for each sample and Trolox was used as a standard.
# human recombinant MAOA = molecular target: T1, human recombinant MAOA (Homo sapiens, UniProt P21397); assay: hMAOA enzyme assay (Amplex UltraRed, fluorimetric); format: biochemical; conditions: mean ± SD; read-out: IC50 (EC50) hMAOA
# T1 sequence (P21397 1-527): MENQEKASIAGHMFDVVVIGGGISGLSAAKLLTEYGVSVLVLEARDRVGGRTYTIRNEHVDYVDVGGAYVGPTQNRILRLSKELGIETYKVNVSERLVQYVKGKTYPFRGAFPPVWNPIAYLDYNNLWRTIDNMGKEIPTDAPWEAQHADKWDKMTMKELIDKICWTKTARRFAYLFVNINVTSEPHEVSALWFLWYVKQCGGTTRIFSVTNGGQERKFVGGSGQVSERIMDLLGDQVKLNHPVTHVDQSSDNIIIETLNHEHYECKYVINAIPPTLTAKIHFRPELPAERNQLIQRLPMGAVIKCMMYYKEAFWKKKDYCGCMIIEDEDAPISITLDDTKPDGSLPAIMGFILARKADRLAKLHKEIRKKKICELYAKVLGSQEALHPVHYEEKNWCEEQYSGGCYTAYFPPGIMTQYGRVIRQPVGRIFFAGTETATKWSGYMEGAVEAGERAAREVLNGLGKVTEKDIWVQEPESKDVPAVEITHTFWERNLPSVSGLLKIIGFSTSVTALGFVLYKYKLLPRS
# Procedure: To observe the selectivity index of the title compounds, in vitro tests against MAO-A were carried out. The novel molecules were tested in the same concentrations as applied in the MAO-B evaluations—1 μM.
# (§1) The examined compounds were evaluated for possible inhibitory capacity on human recombinant MAOA and MAOB enzymes by using the Amplex UltraRed (Sigma Aldrih and Acros, Merck KGaA, Darmstadt, Germany) reagent with some modifications. All reagents were prepared in accordance with the producer’s instructions. As a substrate the tyramine hydrochloride was used for hMAO-B and p-benzylamine for hMAO-A. The reaction mixture included a stock solution of Amplex Red, the reaction buffer at pH 7.4 and the storage solution of horseradish peroxidase (10 U/mL). Five concentrations of the exam compounds were applied. The combination: compounds + hMAOA/B was placed in a 96-well plate, and then the plate was incubated for 30 min (dark, at 37 °C). The reaction was started by the addition of 50 μL of the mix solution: Amplex Red, horseradish peroxidase, and tyramine/p-benzylamine, as an enzyme substrate, in the reaction buffer. The fluorescence was measured every 30 min until 150 min, in dark, while shaking the reaction mixture at constant temperature of 37 °C. The fluorimetric measurements were assessed using a Synergy 2 Microplate Reader (BioTek, Winooski, VT, USA).
# (§2) The in vitro results (MAO-A, MAO-B and AChE inhibitory capacities) were expressed as a mean ± SD (n = 3). Values of p < 0.05 were considered statistically significant.
# human recombinant MAOB = molecular target: T2, human recombinant MAOB (Homo sapiens, UniProt P27338); assay: biochemical; format: biochemical; conditions: for hMAOB inhibition (decrease of hMAOB activity vs control): 1 μM; for IC50: mean ± SD, 2 h exposure, read-out: IC50 (EC50) hMAOB
# T2 sequence (P27338 1-520): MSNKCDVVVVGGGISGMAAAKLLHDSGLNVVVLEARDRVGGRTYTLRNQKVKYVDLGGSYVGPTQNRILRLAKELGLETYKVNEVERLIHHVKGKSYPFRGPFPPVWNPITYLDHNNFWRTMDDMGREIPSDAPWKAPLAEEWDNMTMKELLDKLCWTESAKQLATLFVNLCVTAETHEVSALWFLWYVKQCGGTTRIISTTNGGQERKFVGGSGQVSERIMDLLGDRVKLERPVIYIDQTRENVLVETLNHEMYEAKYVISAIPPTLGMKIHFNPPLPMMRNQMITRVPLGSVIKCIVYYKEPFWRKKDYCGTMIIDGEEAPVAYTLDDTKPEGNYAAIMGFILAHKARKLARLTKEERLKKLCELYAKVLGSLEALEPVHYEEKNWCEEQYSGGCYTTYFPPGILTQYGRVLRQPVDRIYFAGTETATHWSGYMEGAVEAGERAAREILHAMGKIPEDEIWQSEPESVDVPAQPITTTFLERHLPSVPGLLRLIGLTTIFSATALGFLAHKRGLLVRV
# Procedure: The title compounds were tested for hMAOB activities by an in vitro method.
# as §1, §2
# eeAChE = eeAChE (Electrophorus electricus, UniProt O42275); assay: biochemical; conditions: for inhibition at 10 µM: read-out: AChE inhibition; for IC50 / IC50 (EC50) AChE: mean ± SD; for IC50: read-out: IC50 (EC50) AChE; for inhibition at 10 µM / AChE inhibition: 10 μM
# Chain of eeAChE (O42275 24-633): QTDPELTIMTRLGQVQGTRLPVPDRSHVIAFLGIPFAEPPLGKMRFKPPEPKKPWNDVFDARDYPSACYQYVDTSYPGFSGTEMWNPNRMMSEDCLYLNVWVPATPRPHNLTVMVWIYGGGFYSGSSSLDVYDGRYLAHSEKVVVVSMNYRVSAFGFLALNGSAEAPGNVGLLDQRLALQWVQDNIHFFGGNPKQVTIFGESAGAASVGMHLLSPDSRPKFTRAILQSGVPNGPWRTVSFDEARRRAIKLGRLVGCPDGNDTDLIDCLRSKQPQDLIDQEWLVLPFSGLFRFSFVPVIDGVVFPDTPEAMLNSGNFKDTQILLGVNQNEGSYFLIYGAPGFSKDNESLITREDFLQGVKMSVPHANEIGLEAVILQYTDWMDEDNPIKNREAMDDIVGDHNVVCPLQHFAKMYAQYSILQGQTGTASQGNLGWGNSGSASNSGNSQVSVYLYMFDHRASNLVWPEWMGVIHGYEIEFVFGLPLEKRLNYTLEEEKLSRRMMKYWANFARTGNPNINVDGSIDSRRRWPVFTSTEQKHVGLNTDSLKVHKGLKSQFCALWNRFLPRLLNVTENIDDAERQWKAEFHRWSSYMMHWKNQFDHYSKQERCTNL
# Procedure: The AChE potentials of the new valine-based molecules were evaluated according to a modified Ellman’s method. Initially, stock solutions (1 mg/mL) of the new structures were diluted in DMSO and five solutions were prepared by dilutions in order to access the inhibitory potential in different concentrations. Thereafter, the pyrrole-based molecules were incubated with sodium phosphate buffer, and AChE solution for ten minutes at 37 °C. The reaction was started by the addition of 5,5-dithio-bis-(2-nitrobenzoic acid) (DTNB) (10 mM; 20 μL) and acetylthiocholine iodide (14 mM; 20 μL). […] The percent inhibition activity was measured against the blank probe. Donepezil was utilized as a standart acetylcholinesterase inhibitor. The results were expressed as a mean ± SD (n = 3). Values of p < 0.05 were observed as statistically significant.
# as §2
SMILES,PAMPA BBB −logPe Literature [1],"PAMPA BBB −logPe ([2]; PAMPA, 4 h, 50 μM, pH 7.4)",ABTS radical-binding activity [3] [%],DPPH radical scavenging activity [4] [%],IC50 (human recombinant MAOA) [µM],SI: hMAOB selectivity index = IC50(hMAO-A)/IC50(hMAO-B) (human recombinant MAOB),hMAOB inhibition (decrease of hMAOB activity vs control) (human recombinant MAOB),IC50 (human recombinant MAOB) [µM],inhibition at 10 µM (eeAChE) [%],IC50 (eeAChE) [µM],BBB permeability class ([2]; PAMPA-BBB),"PAMPA BBB −logPe ([2]; pH 7.4, 50 μM, 4 h at 25 °C)",AChE inhibition (eeAChE),IC50 (EC50) AChE (eeAChE)
"CC(C)NCC(O)COc1cccc2ccccc12 (stereo not drawn) [Propranolol HCl, propranolol hydrochloride, reference compound]",3.7,4.949 ± 0.003,–,–,–,–,–,–,–,–,–,–,–,–
"Cc1c(C)c2c(c(C)c1O)CCC(C)(C(=O)O)O2 (stereo not drawn) [Trolox, reference compound]",–,–,100,90.07,–,–,–,–,–,–,–,–,–,–
CCOC(=O)c1cc(-c2ccc(Br)cc2)n(C(C(=O)NN)C(C)C)c1C (stereo not drawn) [vh0],–,–,99.40,76.10,> 100,>150,30%,0.665 ± 0.2,62,4.15 ± 1.31,medium (When 6 < –logPe < 5 the molecule is identified with a medium permeability),5.451 and 5.451 ± 0.005,–,–
CCOC(=O)c1cc(-c2ccc(Br)cc2)n(C(C(=O)N/N=C/c2ccc(Cl)cc2)C(C)C)c1C (stereo not drawn) [vh1],–,–,73.67,–,> 100,>134,moderate activity,0.744 ± 0.18,19,18.8 ± 0.91,–,–,–,–
CCOC(=O)c1cc(-c2ccc(Br)cc2)n(C(C(=O)N/N=C/c2cccc(F)c2)C(C)C)c1C (stereo not drawn) [vh2],–,–,–,–,> 100,>1,–,> 100,–,> 100,–,–,weak AChE blocking activity,inactive
CCOC(=O)c1cc(-c2ccc(Br)cc2)n(C(C(=O)N/N=C/c2ccc(OC)cc2)C(C)C)c1C (stereo not drawn) [vh3],–,–,58.27,–,> 100,>1,–,> 100,26,16.3 ± 2.15,–,–,weak AChE blocking activity,–
CCOC(=O)c1cc(-c2ccc(Br)cc2)n(C(C(=O)N/N=C/c2ccc(OC)cc2OC)C(C)C)c1C (stereo not drawn) [vh4],–,–,–,–,> 100,>1,–,> 100,–,> 100,–,–,–,inactive
